ChEMBL document CHEMBL1136705, “Analogues of dealanylalahopcin are inhibitors of human HIF prolyl hydroxylases” (Bioorg Med Chem Lett, 2003)

Molecular target: Prolyl hydroxylase EGLN2 (Homo sapiens, UniProt Q96KS0)
Test: Inhibitory activity against purified fusion of maltose binding with PHD1 as enzyme and […]

Prolyl hydroxylase EGLN2, sequence (Q96KS0 whole entry, the tested form may be a part): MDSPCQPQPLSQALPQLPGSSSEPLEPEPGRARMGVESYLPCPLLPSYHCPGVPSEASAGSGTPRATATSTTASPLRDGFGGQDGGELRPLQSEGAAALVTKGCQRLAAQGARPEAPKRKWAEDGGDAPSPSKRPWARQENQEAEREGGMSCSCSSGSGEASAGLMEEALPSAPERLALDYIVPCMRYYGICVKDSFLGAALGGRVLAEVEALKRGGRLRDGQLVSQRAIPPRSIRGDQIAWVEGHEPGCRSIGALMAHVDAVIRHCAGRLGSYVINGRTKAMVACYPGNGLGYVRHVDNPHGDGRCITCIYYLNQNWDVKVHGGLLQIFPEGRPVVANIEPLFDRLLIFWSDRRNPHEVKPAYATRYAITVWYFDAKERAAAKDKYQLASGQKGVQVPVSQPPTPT

IC50: 1 mM
SMILES: O=C(O)CC1CC(=O)N(O)C1=O (racemic)
